Holding throughout (assay type): cell-based
Test [1] relates to E. coli DH5α. The test is described as follows: Antibacterial activity: MIC and growth curve against E. coli DH5α in 96-well plate. As to conditions: minimal inhibitory concentration against E. coli DH5α; 96-well plate, 5×10^5 CFU/mL, 37° C., judged after 8 h. In short, it runs like this: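 Log-phase bacteria (OD600 ~0.5) resuspended in LB at 5×10^5 CFU/mL, exposed to recombinant protein at 50, 25, 12.5 μg/mL final in triplicate, 37 °C shaking at 175 rpm. OD600 read every 30 min; MIC is lowest concentration showing no growth.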

Test [2] deals with Proteus mirabilis. The test can be described thus: MIC against Gram-negative bacteria: Proteus mirabilis. The following applies: 5×10^5 CFU/mL. In short, it runs like this:
(§1)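 Purified recombinant human EGF domain proteins are tested by broth dilution in LB against a 5×10^5 CFU/mL inoculum, with two-fold serial dilutions run in triplicate. Plates are incubated at 37° C with shaking, and the MIC is read as the lowest protein concentration without growth.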

Test [3] deals with Aeromonas hydrophila. The test can be described thus: MIC against Gram-negative bacteria: Aeromonas hydrophila. As to conditions: 5×10^5 CFU/mL. The method, boiled down:
as §1

Test [4] has as its system Proteus vulgaris. The test is described as follows: MIC against Gram-negative bacteria: Proteus vulgaris. As to conditions: 5×10^5 CFU/mL. The method, boiled down: as §1
Test [5] deals with Pseudomonas aeruginosa. The test is described as follows: MIC against Gram-negative bacteria: Pseudomonas aeruginosa. The following applies: 5×10^5 CFU/mL. In short, it runs like this:
as §1

Test [6] has as its system E. coli BL21. The test can be described thus: MIC against Gram-negative bacteria: E. coli BL21. The following applies: 5×10^5 CFU/mL. The method, boiled down:
as §1

Test [7] relates to Enterobacter cloacae. The test is described as follows: MIC against Gram-negative bacteria: Enterobacter cloacae. As to conditions: 5×10^5 CFU/mL. In short, it runs like this:
as §1

Test [8] deals with Citrobacter diversus. The test can be described thus: MIC against Gram-negative bacteria: Citrobacter diversus. The following applies: 5×10^5 CFU/mL. In short, it runs like this:
as §1

In test [9] the test system is Moraxella catarrhalis. The test is described as follows: MIC against Gram-negative bacteria: Moraxella catarrhalis. As to conditions: 5×10^5 CFU/mL. The method, boiled down:
as §1

For test [10], the system named is Serratia marcescens. The test can be described thus: MIC against Gram-negative bacteria: Serratia marcescens. The following applies: 5×10^5 CFU/mL. The method, boiled down: as §1
The test system of test [11] is Klebsiella pneumonia. The test is described as follows: MIC against Gram-negative bacteria: Klebsiella pneumonia. As to conditions: 5×10^5 CFU/mL. In short, it runs like this: as §1
[12] abbreviates: Proteus mirabilis, 96-well plate, 37° C., 10 h.
[13] abbreviates: Aeromonas hydrophila, 96-well plate, 37° C., 10 h.
[14] abbreviates: Proteus vulgaris, 96-well plate, 37° C., 10 h.
Setting [15] is: Pseudomonas aeruginosa, 96-well plate, 37° C., 10 h.
Where [16] appears, read: E. coli BL21, 96-well plate, 37° C., 10 h.
[17] abbreviates: Enterobacter cloacae, 96-well plate, 37° C., 10 h.
Where [18] appears, read: Citrobacter diversus, 96-well plate, 37° C., 10 h.
Where [19] appears, read: Moraxella catarrhalis, 96-well plate, 37° C., 10 h.
Where [20] appears, read: Serratia marcescens, 96-well plate, 37° C., 10 h.
Setting [21] is: Klebsiella pneumonia, 96-well plate, 37° C., 10 h.
Setting [22] is: 10 h cultivation at 37° C., two-fold serial dilution.

In turn, “PRT875 (GGSPCEAGEEGEGGVCLNGGVCSVVDDQAVCDCSRTGFRGKDCS; listed as Homo sapiens)” showed an MIC in test [1] of 25 µg/mL. The “MIC (μg/mL) P. mirabilis” value in [2] (P. mirabilis, 10 h cultivation at 37° C.) is 50 µg/mL. The “MIC (μg/mL) A. hydrophila” value in test [3] (A. hydrophila, 10 h cultivation at 37° C.) turned out to be 50 µg/mL. In addition, the “MIC (μg/mL) P. vulgaris” value in test [4] (P. vulgaris, 10 h cultivation at 37° C.) was found to be 12.5 µg/mL. Besides, the “MIC (μg/mL) P. aeruginosa” value in test [5] (P. aeruginosa, 10 h cultivation at 37° C.) is 25 µg/mL. In test [6] (E. coli BL21, 10 h cultivation at 37° C.), the “MIC (μg/mL) E. coli BL21” value amounted to 12.5 µg/mL. For the same substance, in test [7] (E. cloacae, 10 h cultivation at 37° C.), the “MIC (μg/mL) E. cloacae” value was 12.5 µg/mL. Further, the “MIC (μg/mL) C. diversus” value in test [8] (C. diversus, 10 h cultivation at 37° C.) was found to be 12.5 µg/mL. Besides, in test [9] (M. catarrhalis, 10 h cultivation at 37° C.), the “MIC (μg/mL) M. catarrhalis” value turned out to be 25 µg/mL. Besides, the “MIC (μg/mL) S. marcescens” value in [10] (S. marcescens, 10 h cultivation at 37° C.) was found to be 12.5 µg/mL. Also, the “MIC (μg/mL) K. pneumonia” value in test [11] (K. pneumonia, 10 h cultivation at 37° C.) turned out to be 50 µg/mL.
Regarding “PRT15 (GDHPCLPNPCHGGAPCQNLEAGRFHCQCPPGRVGPTCA; listed as Homo sapiens)”, the MIC in test [1] was 25 µg/mL. Besides, the “MIC (μg/mL) P. mirabilis” value in test [2] (setting [12]) came out at 12.5 µg/mL. In test [3] (setting [13]), the “MIC (μg/mL) A. hydrophila” value stood at 12.5 µg/mL. Further, in [4] (setting [14]), the “MIC (μg/mL) P. vulgaris” value amounted to 12.5 µg/mL. Moreover, the “MIC (μg/mL) P. aeruginosa” value in test [5] (setting [15]) is 25 µg/mL. For the same substance, the “MIC (μg/mL) E. coli BL21” value in [6] (setting [16]) was found to be 50 µg/mL. Besides, the “MIC (μg/mL) E. cloacae” value in test [7] (setting [17]) is 50 µg/mL. In test [8] (setting [18]), the “MIC (μg/mL) C. diversus” value is 25 µg/mL. Besides, the “MIC (μg/mL) M. catarrhalis” value in [9] (setting [19]) worked out at 12.5 µg/mL. Besides, the “MIC (μg/mL) S. marcescens” value in test [10] (setting [20]) worked out at 25 µg/mL. Moreover, in test [11] (setting [21]), the “MIC (μg/mL) K. pneumonia” value was 12.5 µg/mL.
“PRT1212 (DIDECSGNPCLHGALCENTHGSYHCNCSHEYRGRHCE; listed as Homo sapiens)” registered an MIC in [1] of 50 µg/mL. In addition, the “MIC against P. mirabilis” value in test [2] (setting [12]) amounted to 50 µg/mL. Moreover, in test [3] (setting [13]), the “MIC against A. hydrophila” value stood at 25 µg/mL. The “MIC against P. vulgaris” value in [4] (setting [14]) is 25 µg/mL. Also, the “MIC against P. aeruginosa” value in test [5] (setting [15]) was found to be 12.5 µg/mL. Further, the “MIC against E. coli BL21” value in test [6] (setting [16]) was 25 µg/mL. The “MIC against E. cloacae” value in test [7] (setting [17]) is 25 µg/mL. Besides, the “MIC against C. diversus” value in test [8] (setting [18]) amounted to 12.5 µg/mL. Moreover, the “MIC against M. catarrhalis” value in test [9] (setting [19]) stood at 25 µg/mL. For the same substance, the “MIC against S. marcescens” value in test [10] (setting [20]) amounted to 12.5 µg/mL. The “MIC against K. pneumonia” value in test [11] (setting [21]) was 50 µg/mL.
Consider “PRT1135 (NLDDCASRPCQRGARCRDRVHDFDCLCPSGYGGKTCE; listed as Homo sapiens)”, for which the minimum inhibitory concentration (MIC) in test [1] was determined as 25 µg/mL. In addition, the “MIC P. mirabilis” value in test [2] (setting [22]) was 50 µg/mL. Moreover, the “MIC A. hydrophila” value in test [3] (setting [22]) stood at 25 µg/mL. Besides, in test [4] (setting [22]), the “MIC P. vulgaris” value is 25 µg/mL. Moreover, the “MIC P. aeruginosa” value in [5] (setting [22]) stood at 100 µg/mL. Moreover, the “MIC E. coli BL21” value in [6] (setting [22]) is 50 µg/mL. Further, in test [7] (setting [22]), the “MIC E. cloacae” value is 25 µg/mL. Also, the “MIC C. diversus” value in test [8] (setting [22]) was determined as 12.5 µg/mL. Moreover, the “MIC M. catarrhalis” value in test [9] (setting [22]) turned out to be 25 µg/mL. Also, in test [10] (setting [22]), the “MIC S. marcescens” value came to 12.5 µg/mL. The “MIC K. pneumonia” value in test [11] (setting [22]) was found to be 50 µg/mL.
In the case of “PRT465 (ALDPCASGPCLNGGSCSNTQDPQSYHCSCPRAFTGKDCG; listed as Homo sapiens)”, the MIC in [1] amounted to 50 µg/mL. The “MIC against P. mirabilis” value in test [2] (96-well plate, 37° C., 10 h) is 50 µg/mL. The “MIC against A. hydrophila” value in [3] (96-well plate, 37° C., 10 h) is 12.5 µg/mL. In addition, the “MIC against P. vulgaris” value in test [4] (96-well plate, 37° C., 10 h) is 12.5 µg/mL. Further, in test [5] (96-well plate, 37° C., 10 h), the “MIC against P. aeruginosa” value was found to be 50 µg/mL. In addition, the “MIC against E. coli BL21” value in test [6] (96-well plate, 37° C., 10 h) is 12.5 µg/mL. Moreover, the “MIC against E. cloacae” value in test [7] (96-well plate, 37° C., 10 h) was 50 µg/mL. Also, the “MIC against C. diversus” value in [8] (96-well plate, 37° C., 10 h) was 50 µg/mL. Besides, the “MIC against M. catarrhalis” value in test [9] (96-well plate, 37° C., 10 h) worked out at 12.5 µg/mL. Besides, in [10] (96-well plate, 37° C., 10 h), the “MIC against S. marcescens” value worked out at 50 µg/mL. Moreover, in test [11] (96-well plate, 37° C., 10 h), the “MIC against K. pneumonia” value amounted to 12.5 µg/mL.
As for “PRT1320 (PSNPCSHPDRGGCSENAECVPGSLGTHHCTCHKGWSGDGRVCV; listed as Homo sapiens)”, the MIC in test [1] was found to be 25 µg/mL. In test [2] (setting [12]), the “MIC against P. mirabilis” value was found to be 12.5 µg/mL. Further, the “MIC against A. hydrophila” value in test [3] (setting [13]) was determined as 12.5 µg/mL. In addition, in test [4] (setting [14]), the “MIC against P. vulgaris” value is 50 µg/mL. Also, in test [5] (setting [15]), the “MIC against P. aeruginosa” value worked out at 25 µg/mL. Further, the “MIC against E. coli BL21” value in test [6] (setting [16]) is 12.5 µg/mL. In addition, the “MIC against E. cloacae” value in test [7] (setting [17]) was found to be 25 µg/mL. The “MIC against C. diversus” value in test [8] (setting [18]) is 12.5 µg/mL. Besides, the “MIC against M. catarrhalis” value in test [9] (setting [19]) is 12.5 µg/mL. Also, in test [10] (setting [20]), the “MIC against S. marcescens” value was determined as 12.5 µg/mL. Moreover, the “MIC against K. pneumonia” value in test [11] (setting [21]) came out at 12.5 µg/mL.

The MIC is the least concentration at which growth counts as inhibited.

For the origin of these results see patent publication US9833497B2, “Human originated EGF domain proteins and use of the same” (CHENGDU SOURCEBIO LIMITED-LIABILITY COMPANY, priority 2013, dated 2017).
